# Where a name gives a salt, the structure may show the parent alone.
# Target: T1, human α1D adrenaline receptor (Homo sapiens, UniProt P25100)
# T1 construct: expressed in transfected cells
# T1 sequence (P25100 1-572): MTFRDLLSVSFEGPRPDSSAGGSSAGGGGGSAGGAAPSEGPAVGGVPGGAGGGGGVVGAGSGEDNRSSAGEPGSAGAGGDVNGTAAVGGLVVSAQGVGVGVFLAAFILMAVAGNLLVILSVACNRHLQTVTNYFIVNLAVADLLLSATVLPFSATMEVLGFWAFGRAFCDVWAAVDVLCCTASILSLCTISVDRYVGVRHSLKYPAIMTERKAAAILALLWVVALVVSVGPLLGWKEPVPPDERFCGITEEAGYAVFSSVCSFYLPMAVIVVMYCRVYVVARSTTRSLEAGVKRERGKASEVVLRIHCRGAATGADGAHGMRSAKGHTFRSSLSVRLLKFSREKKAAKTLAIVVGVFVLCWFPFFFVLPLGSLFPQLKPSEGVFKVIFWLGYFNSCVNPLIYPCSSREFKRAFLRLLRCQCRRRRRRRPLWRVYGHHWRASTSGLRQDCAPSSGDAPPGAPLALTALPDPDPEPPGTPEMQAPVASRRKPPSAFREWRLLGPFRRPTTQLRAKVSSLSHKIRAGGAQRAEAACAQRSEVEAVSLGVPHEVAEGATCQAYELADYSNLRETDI
# Test: Measurement of α1D adrenaline receptor binding inhibitory activity ([3H] prazosin binding to membrane fraction of CHO-K1 cells expressing the receptor)
# Settings: α1D adrenaline receptor binding inhibitory rate at 1 μM compound; [3H] prazosin 2.5 nM; CHO-K1 membrane fraction 20 μg/well; room temperature 1 hr
# Method: Measurement of α1D Adrenaline Receptor Binding Inhibitory Activity
# Genetic manipulation methods described below are based on the methods described in Maniatis et al., Molecular Cloning, Cold Spring Harbor Laboratory, 1989, the protocol appended to a reagent and the like.
# α1D Adrenaline receptor gene was cloned from human liver cDNA by the PCR method. PCR reaction was performed by Gene Amp PCR System 9700 (Applied Biosystems) with 50 pmol each of the primer set 5′-[…]-3′ [SEQ ID NO: 1] and 5′-[…]-3′ [SEQ ID NO: 2] prepared in reference to the base sequence of the α1D adrenaline receptor gene reported by DEBRA A. et al. (J. Pharmacol. Exp. Ter., 272, 134-142 (1995)), 200 ng of human brain hippocampus cDNA library (Takara Shuzo Co., Ltd.) as a template and TaKaRa LA-Taq DNA Polymerase (Takara Shuzo Co., Ltd.) (reaction conditions: 45 cycles of 94° C. for 15 sec, 68° C. for 3.5 min).
# The PCR fragment obtained above was digested with restriction enzymes NheI (Takara Shuzo Co., Ltd.) and Kpn I (Takara Shuzo Co., Ltd.), and applied to agarose gel electrophoresis to recover DNA fragments. The DNA fragments were ligated with animal cell expression plasmid pcDNA3.1/Zeo (Invitrogen) digested with NheI and Kpn I, by DNA Ligation Kit Ver.2 (Takara Shuzo Co., Ltd.), and transformed the competent cells of Escherichia coli JM109 to obtain plasmid, pcDNA3.1/Zeo-Adreα1D.
# CHO-K1 cells passage cultured in HamF12 medium (Invitrogen) containing 10% fetal bovine serum (TRACE SCIENCETIFIC) in a 150 cm^2 culture flask (Corning Coaster) were detached with 0.5 g/L trypsin-0.2 g/L EDTA (Invitrogen), and the cells were washed with D-PBS(−) (Invitrogen) and centrifuged (1000 rpm, 5 min). Then, using Gene Pulser II (BioRad), DNA was introduced into the cells under the following conditions. 1×10^7 cells suspended in D-PBS(−) (700 μl) and 10 μg of pcDNA3.1/Zeo-Adreα1D were added in a 0.4 cm gap cuvette (BioRad), and electroporation was performed under voltage 0.25 kV, capacitance 960 μF. The cells were cultured in HamF12 medium containing 10% fetal bovine serum and 250 μg/mL Zeocin (Invitrogen) and the Zeocin resistance clones were selected.
# Plurality of Zeocin resistance clones were selected and cultured in a cell culture flask (150 cm^2) until semiconfluent, and the cellular membrane fraction was prepared as follows.
# The semiconfluent cells were detached with 0.02% EDTA containing D-PBS(−) and recovered by centrifugation. The cells were suspended in membrane preparation buffer (10 mM NaHCO3 pH 7.4, protease inhibitor cocktail (Roche)) and disrupted by 3 times of treatment in a polytron homogenizer (model PT-3100, KINEMATICA AG) at 20000 rpm for 20 seconds. After disruption, the cells were centrifuged at 2000 rpm for 10 min and the supernatant containing membrane fractions was obtained. The supernatant was centrifuged using an ultracentrifuge (model L8-70M, rotor 70 Ti, Beckman Instruments) at 30000 rpm for 1 hr to obtain a precipitate containing membrane fractions. The obtained membrane fraction of each clone was subjected to the binding experiment shown below.
# The membrane fraction (20 μg/well) and [^3H] prazosin (2.5 nM, PerkinElmer Lifescience), as a ligand, were diluted with a binding assay buffer (50 mM Tris-HCl, 10 mM MgCl2, 0.5% BSA, protease inhibitor cocktail pH 7.5), added to a 96 well microplate, and reacted at room temperature for 1 hr. For the measurement of non-specific binding, phentolamine (Sigma) was further added to 10 μM. Then, the reaction mixture was filtered and transferred to unifilter GF/C (PerkinElmer Lifescience) by using a cell harvester (PerkinElmer Lifescience). The filter was washed 3 times with ice-cooled 50 mM Tris buffer (pH 7.5). After drying the filter, MicroScinti 0 (PerkinElmer Lifescience) was added to the filter and the radioactivity was measured by TopCount (PerkinElmer Lifescience). […]
row,SMILES,inhibition at 1 µM [%]
1,"CCS(=O)(=O)c1ccc(Cl)cc1Cn1cc(Cl)cc(C(N)=O)c1=N [Example 17, 5-chloro-1-[5-chloro-2-(ethylsulfonyl)benzyl]-2-imino-1,2-dihydropyridine-3-carboxamide hydrochloride]",100
2,"C[S+]([O-])c1ccc(Cl)cc1Cn1cc(Cl)cc(C(N)=O)c1=N (stereo not shown) [Example 14, 5-chloro-1-[5-chloro-2-(methylsulfinyl)benzyl]-2-imino-1,2-dihydropyridine-3-carboxamide hydrochloride]",92
3,"CS(=O)(=O)c1cc(Cl)cc(Cn2cc(Cl)cc(C(N)=O)c2=N)c1 [Example 12, 5-chloro-1-[3-chloro-5-(methylsulfonyl)benzyl]-2-imino-1,2-dihydropyridine-3-carboxamide hydrochloride]",87.5
4,"CS(=O)(=O)c1ccc(Cl)cc1Cn1cc(Cl)cc(C(N)=O)c1=N [Example 1, 5-chloro-1-[5-chloro-2-(methylsulfonyl)benzyl]-2-imino-1,2-dihydropyridine-3-carboxamide hydrochloride]",100
5,"CS(=O)(=O)c1ccc(F)cc1Cn1cc(Cl)cc(C(N)=O)c1=N [Example 18, 5-chloro-1-[5-fluoro-2-(methylsulfonyl)benzyl]-2-imino-1,2-dihydropyridine-3-carboxamide hydrochloride]",93.5
6,"N=c1c(C(N)=O)cc(Cl)cn1Cc1cc(Cl)ccc1S(N)(=O)=O [Example 28, 5-chloro-1-(5-chloro-2-sulfamoylbenzyl)-2-imino-1,2-dihydropyridine-3-carboxamide hydrochloride]",91.2
7,"N=c1c(C(N)=O)cc(Cl)cn1Cc1cc(Cl)ccc1N1CCCC1=O [Example 35, 5-chloro-1-[5-chloro-2-(2-oxopyrrolidin-1-yl)benzyl]-2-imino-1,2-dihydropyridine-3-carboxamide hydrochloride]",89
8,"CS(=O)(=O)c1cc(Cn2cc(Cl)cc(C(N)=O)c2=N)ccc1Cl [Example 15, 5-chloro-1-[4-chloro-3-(methylsulfonyl)benzyl]-2-imino-1,2-dihydropyridine-3-carboxamide hydrochloride]",72.8
9,"Cc1ccc(S(C)(=O)=O)c(Cn2cc(Cl)cc(C(N)=O)c2=N)c1 [Example 8, 5-chloro-2-imino-1-[5-methyl-2-(methylsulfonyl)benzyl]-1,2-dihydropyridine-3-carboxamide hydrochloride]",93.5
10,"CCS(=O)(=O)c1ccc(F)cc1Cn1cc(Cl)cc(C(N)=O)c1=N [Example 24, 5-chloro-1-[2-(ethylsulfonyl)-5-fluorobenzyl]-2-imino-1,2-dihydropyridine-3-carboxamide hydrochloride]",98.4

# From patent US20110039846A1, “IMINOPYRIDINE DERIVATIVES AND USE THEREOF” (TAKEDA PHARMACEUTICAL COMPANY LIMITED, priority 2008, published 2011)
